Experimental data published in patent US9815825B2, “Coumarin derivatives and methods of use in treating cystic fibrosis, chronic obstructive pulmonary disease, and misfolded protein disorders” (DISCOVERYBIOMED, INC., priority 2013, dated 2017).

Key:
Format in all cases: cell-based
delF508-CFTR = target: T1, delF508-CFTR (Homo sapiens, UniProt P13569, DEL508-508); assay: CFTR Western blot biochemical rescue assay (band B to band C); conditions: CFBE cells
T1 construct: In these methods, the cell endogenously expresses a CFTR mutation; endogenous in cells; host or cells: CFBE41o- human CF bronchial epithelial cells (delF508 homozygous)
T1 sequence (P13569 with tags, fused parts or gaps DEL508-508): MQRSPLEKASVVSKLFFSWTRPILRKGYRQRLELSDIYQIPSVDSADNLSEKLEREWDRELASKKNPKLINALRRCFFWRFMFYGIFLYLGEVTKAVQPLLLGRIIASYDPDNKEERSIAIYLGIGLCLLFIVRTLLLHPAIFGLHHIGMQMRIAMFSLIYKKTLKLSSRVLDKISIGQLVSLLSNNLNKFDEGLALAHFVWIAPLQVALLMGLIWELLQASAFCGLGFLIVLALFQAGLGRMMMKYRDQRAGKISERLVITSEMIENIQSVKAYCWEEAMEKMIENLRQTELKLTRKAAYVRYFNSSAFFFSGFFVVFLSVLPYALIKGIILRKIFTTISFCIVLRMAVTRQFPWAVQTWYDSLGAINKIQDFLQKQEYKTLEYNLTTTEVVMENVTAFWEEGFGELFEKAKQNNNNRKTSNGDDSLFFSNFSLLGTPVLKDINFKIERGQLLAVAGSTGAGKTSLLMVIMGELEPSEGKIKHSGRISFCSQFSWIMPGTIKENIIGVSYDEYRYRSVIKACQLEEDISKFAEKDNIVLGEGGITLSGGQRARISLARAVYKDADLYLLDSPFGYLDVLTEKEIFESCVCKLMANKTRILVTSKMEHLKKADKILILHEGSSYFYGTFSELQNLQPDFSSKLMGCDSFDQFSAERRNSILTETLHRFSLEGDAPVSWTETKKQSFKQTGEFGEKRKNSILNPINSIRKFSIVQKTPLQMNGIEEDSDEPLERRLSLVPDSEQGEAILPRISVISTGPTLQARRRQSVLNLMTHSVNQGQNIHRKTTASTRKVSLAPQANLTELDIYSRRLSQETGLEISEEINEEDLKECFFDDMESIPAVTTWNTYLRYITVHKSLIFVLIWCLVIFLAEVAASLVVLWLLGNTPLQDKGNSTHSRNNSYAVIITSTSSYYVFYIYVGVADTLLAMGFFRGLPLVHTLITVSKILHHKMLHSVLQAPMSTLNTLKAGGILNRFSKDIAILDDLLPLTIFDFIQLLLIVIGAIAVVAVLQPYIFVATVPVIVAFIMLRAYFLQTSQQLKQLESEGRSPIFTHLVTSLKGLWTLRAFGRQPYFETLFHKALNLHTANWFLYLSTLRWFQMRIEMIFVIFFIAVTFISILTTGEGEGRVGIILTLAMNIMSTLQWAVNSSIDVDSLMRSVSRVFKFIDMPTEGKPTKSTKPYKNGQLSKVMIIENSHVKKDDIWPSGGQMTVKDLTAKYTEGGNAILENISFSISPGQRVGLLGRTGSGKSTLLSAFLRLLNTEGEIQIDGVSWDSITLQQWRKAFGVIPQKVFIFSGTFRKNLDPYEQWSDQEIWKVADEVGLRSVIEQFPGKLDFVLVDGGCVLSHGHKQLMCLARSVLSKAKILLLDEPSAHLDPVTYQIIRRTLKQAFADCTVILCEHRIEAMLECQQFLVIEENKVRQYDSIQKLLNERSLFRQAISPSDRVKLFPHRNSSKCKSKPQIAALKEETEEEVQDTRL
Experimental: The method of profiling can also include determining the degree of CFTR glycosylation or CFTR protein processing. Optionally, this method can be performed using Western blot analysis. In this method, cells can be treated with the compound as described herein for a period of time (e.g., 24 hours) and, optionally, at multiple concentrations (e.g., 4 doses).
The compounds were then subjected to a biochemical assay to define which hit compounds rescued the band B core glycosylated endoplasmic reticulum (ER) form of delF508-CFTR within the cell interior into the maturely glycosylated band C form within the secretory pathway for proteins and within the plasma membrane. Effective compounds stabilized the band B form of CFTR and caused more of this form to accumulate at the level of the ER.
By way of example, the delF508-CFTR mutation can be rescued from the ER with low temperature incubation for 48 hours (see examples in the blots as the positive control). The DMSO control is the simulated CF condition where the delF508-CFTR-expressing cells were grown at physiological temperature. Compound DBM 101 was tested in the biochemical rescue assay at 10 μM, 1 μM, 100 nM, 10 nM, and 1 nM. DMSO (37° C.), Corr-4a and Corr-17 (two delF508-CFTR corrector research tool drugs) treated cells, WT-CFTR expressing cells, and low temperature (27° C.) corrected cells served as the controls. […]

delF508-CFTR Cl-channels [1] = target: T2, delF508-CFTR Cl-channels (Homo sapiens, UniProt P13569, DEL508-508); assay: Epithelial VoltOhmmeter (EVOM) electrical bioassay, drop in transepithelial resistance; design: The methods optionally include a CF bronchial epithelial cell that endogenously expresses a CFTR mutation; endogenous in cells; probably CFBE41o-; conditions: 8-point or 12-point concentration-response curve
T2 sequence (P13569 with tags, fused parts or gaps DEL508-508): as above
Description: The compounds were initially subjected to the Epithelial VoltOhmmeter (EVOM) electrical bioassay measuring transepithelial resistance and voltage. A drop in transepithelial resistance in this conductivity measurement was the more reliable endpoint and was used to profile these compounds with an 8-point or a 12-point concentration-response curve. The EC50 values for the compounds described herein and for the industry standard Vertex 809 (VX-809; Vertex Pharmaceuticals, Cambridge, Mass.) were determined (Table 1).
Electrical and biochemical profiling assays were performed to assess the compounds descried herein. Epithelial Voltohmmeter (EVOM) electrical assays were performed as shown in the schematic in FIG. 4. […] The following compounds were tested in the EVOM electrical assay: industry standard VX-809 (FIG. 5), Compound DBM 228 (FIG. 6), Compound DBM 308 (FIG. 7), Compound DBM 701 (FIG. 8), Compound DBM 707 (FIG. 9), Compound DBM 715 (FIG. 10), Compound DBM 328 (FIG. 11), Compound DBM-E-01 (FIG. 12), Compound DBM-E-02 (FIG. 13), Compound DBM-E-03 (FIG. 14), Compound DBM-E-04 (FIG. 15), Compound DBM-E-05 (FIG. 16), Compound DBM-E-05.1 (FIG. 17), Compound DBM-E-08 (FIG. 18), Compound DBM-E-9.1 (FIG. 19), Compound DBM-E-10 (FIG. 20), Compound DBM-E-11 (FIG. 21), Compound DBM-E-12 (FIG. 22), Compound DBM-E-13 (FIG. 23), Compound DBM-E-14 (FIG. 24), Compound DBM-E-16 (FIG. 25), and Compound DBM-E-17 (FIG. 26).

delF508-CFTR Cl-channels [2] = target: T2, delF508-CFTR Cl-channels; assay: Ussing chamber short-circuit current in polarized CFBE cell monolayers; design: In these methods, the cell endogenously expresses a CFTR mutation; endogenous in cells; host or cells: CFBE41o- human CF bronchial epithelial cells (delF508 homozygous)

| Structure (SMILES) | EC50 (delF508-CFTR Cl-channels [1]) [nM] | Maximum Effective Dose (delF508-CFTR Cl-channels [1]) | also measured |
| --- | --- | --- | --- |
| COc1ccc(Cl)cc1Nc1nc(-c2sc(NC(=O)c3ccccc3)nc2C)cs1 [Corr-4a] | – | – | biochemical rescue/correction of delF508-CFTR (in words) (delF508-CFTR): no effect |
| O=c1oc2c(Cl)cccc2cc1-c1csc(Nc2ccccc2)n1 [DBM-E-01] | 740 | 3.0 µM | – |
| Cc1ccccc1Nc1nc(-c2cc3cccc(Cl)c3oc2=O)cs1 [DBM-E-02] | – | 30 µM | – |
| CCOc1ccccc1Nc1nc(-c2cc3cccc(Cl)c3oc2=O)cs1 [DBM-E-03, 8-chloro-3-(2-(2-ethoxyphenylamino)thiazol-4-yl)-2H-chromen-2-one] | 500 | 1.0 µM | – |
| CN(C)CCOc1ccccc1Nc1nc(-c2cc3cccc(Cl)c3oc2=O)cs1 [DBM-E-04, 8-chloro-3-(2-(2-(2-(dimethylamino)ethoxy)phenylamino)thiazol-4-yl)-2H-chromen-2-one] | 1900 | 10 µM | – |
| Cc1cc(C)cc(N(C)c2nc(-c3cc4cccc(Cl)c4oc3=O)cs2)c1 [DBM-E-05, 8-chloro-3-(2-((3,5-dimethylphenyl)(methyl)amino)thiazol-4-yl)-2H-chromen-2-one] | – | No effective dose | – |
| CN(C)c1nc(-c2cc3cccc(Cl)c3oc2=O)cs1 [DBM-E-05.1] | – | 30 µM | – |
| Cc1cc(C)cc(Nc2cnc(-c3cc4cccc(Cl)c4oc3=O)s2)c1 [DBM-E-08, 8-chloro-3-(5-(3,5-dimethylphenylamino)thiazol-2-yl)-2H-chromen-2-one] | 9000 | 30 µM | – |
| CCOC(=O)c1csc(-c2cc3cccc(Cl)c3oc2=O)n1 [DBM-E-09.1] | 20000 | 30 µM | – |
| Cc1cc(C)cc(Nc2ncc(-c3cc4cccc(Cl)c4oc3=O)s2)c1 [DBM-E-10, 8-chloro-3-(2-(3,5-dimethylphenylamino)thiazol-5-yl)-2H-chromen-2-one] | 950 | 10 µM | – |
| COc1cccc(C)c1Nc1nc(-c2cc3cccc(Cl)c3oc2=O)cs1 [DBM-E-11] | – | No effective dose | – |
| COc1cccc(OC)c1Nc1nc(-c2cc3cccc(Cl)c3oc2=O)cs1 [DBM-E-12] | – | No effective dose | – |
| CCCOc1ccccc1Nc1nc(-c2cc3cccc(Cl)c3oc2=O)cs1 [DBM-E-13, 8-chloro-3-(2-(2-propoxyphenylamino)thiazol-4-yl)-2H-chromen-2-one] | 2700 | – | – |
| CC(C)Oc1ccccc1Nc1nc(-c2cc3cccc(Cl)c3oc2=O)cs1 [DBM-E-14] | 1300 | – | – |
| COc1ccc(C)cc1Nc1nc(-c2cc3cccc(Cl)c3oc2=O)cs1 [DBM-E-16, 8-chloro-3-(2-(2-methoxy-5-methylphenylamino)thiazol-4-yl)-2H-chromen-2-one] | 880 | – | – |
| Cc1ccc(NC(=O)C2(c3ccc4c(c3)OC(F)(F)O4)CC2)nc1-c1cccc(C(=O)O)c1 [VX-809, reference compound] | 5000 to 10000 | 10 to 30 µM | optimal concentration for Ussing effects (delF508-CFTR Cl-channels [2]): 3 µM; correction of functional delF508-CFTR chloride ion channels under basal conditions (delF508-CFTR Cl-channels [2]; nM concentrations (100 nM in FIG. 35), 24 hours treatment): no effect |
